Among the test systems are CAKI-1 renal; CCRF-CEM leukemia; HCT-116 colon; HL-60(TB) leukemia; HOP-62 NSCLC; IGROV1 ovarian; KM12 colon; LOX IMVI melanoma; MDA-MB-231 breast; MDA-MB-435; MOLT-4 leukemia; NCI-H23 lung; NCI-H522 lung; OVCAR-3 ovarian; SF-268 CNS; SF-295 CNS; SF-539 CNS; SK-MEL-2 melanoma; SN12C renal.
Test in all cases: NCI anticancer screen, dose series, 48 h

The text below walks through data of PubChem BioAssay (NCI).

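Growth conditions: 96-well plates. Treatment: test compound, 48 hours, 5 concentrations. Analysis: linear interpolation between bracketing concentrations; unreached endpoints set to highest concentration. The concentration for full growth arrest is given as TGI.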

Take `CSC1=N/C(=C\c2ccc(C)cc2)C(=O)N1`: the TGI in the experiment with CAKI-1 renal, in the experiment on CCRF-CEM leukemia, with HCT-116 colon, in the experiment with HL-60(TB) leukemia, with HOP-62 NSCLC and with IGROV1 ovarian was greater than 100 µM each time. The TGI in the experiment on KM12 colon, in the experiment with LOX IMVI melanoma, in the experiment with MDA-MB-231 breast, with MDA-MB-435, with MOLT-4 leukemia and with NCI-H23 lung was greater than 100 µM each time. Besides, the TGI in the experiment on NCI-H522 lung, in the experiment on OVCAR-3 ovarian, in the experiment on SF-268 CNS, in the experiment with SF-295 CNS, in the experiment on SF-539 CNS and with SK-MEL-2 melanoma was greater than 100 µM throughout. In addition, in the experiment with SN12C renal, the TGI was greater than 100 µM.
Consider `COC(=O)C1=CC2C(=O)c3ccccc3C1(c1ccccc1)N2C1CCCCC1` (configuration not stated), for which the TGI with CAKI-1 renal was 46.1 µM; in the experiment on CCRF-CEM leukemia, greater than 100 µM; in the experiment on HCT-116 colon, greater than 100 µM; in the experiment with HL-60(TB) leukemia, greater than 100 µM; with HOP-62 NSCLC, 36.8 µM; in the experiment on IGROV1 ovarian, greater than 100 µM. Also, the TGI in the experiment with KM12 colon is 32.1 µM; in the experiment on LOX IMVI melanoma it was 52.3 µM; in the experiment with MDA-MB-231 breast it was 42.8 µM; in the experiment on MDA-MB-435 it was 43.4 µM; in the experiment with MOLT-4 leukemia, greater than 100 µM; in the experiment on NCI-H23 lung, greater than 100 µM. For the same compound, the TGI in the experiment on NCI-H522 lung was 82.3 µM; in the experiment with OVCAR-3 ovarian it was 95 µM; in the experiment on SF-268 CNS, greater than 100 µM; in the experiment on SF-295 CNS, 55.3 µM; in the experiment with SF-539 CNS, 41.5 µM; with SK-MEL-2 melanoma it was 29.1 µM. In the experiment with SN12C renal, the TGI was greater than 100 µM.
Take `Cc1cc(S(=O)(=O)Nc2nc(N)nc(N3N=CCC3C)n2)c(SCC(=O)O)cc1Cl` (configuration not stated): the TGI in the experiment with CAKI-1 renal, in the experiment with CCRF-CEM leukemia, in the experiment with HCT-116 colon, in the experiment with HL-60(TB) leukemia, in the experiment with HOP-62 NSCLC and in the experiment with IGROV1 ovarian was greater than 10 µM in each case. Further, the TGI with KM12 colon, in the experiment with LOX IMVI melanoma, in the experiment with MDA-MB-231 breast, with MDA-MB-435, in the experiment on MOLT-4 leukemia and in the experiment on NCI-H23 lung was greater than 10 µM throughout. The TGI in the experiment on NCI-H522 lung, in the experiment with OVCAR-3 ovarian, in the experiment on SF-268 CNS, in the experiment with SF-295 CNS, in the experiment with SF-539 CNS and in the experiment with SK-MEL-2 melanoma was greater than 10 µM throughout. In addition, the TGI with SN12C renal was greater than 10 µM.
Turning to `NC(CSS(=O)(=O)O)=NC1CC2CCC1C2` (configuration not stated), the TGI in the experiment on CAKI-1 renal, in the experiment on CCRF-CEM leukemia, in the experiment with HCT-116 colon, in the experiment on HL-60(TB) leukemia, with HOP-62 NSCLC and in the experiment with IGROV1 ovarian was greater than 100 µM throughout. Moreover, the TGI in the experiment with KM12 colon, in the experiment with LOX IMVI melanoma, in the experiment with MDA-MB-231 breast, with MDA-MB-435, in the experiment with MOLT-4 leukemia and in the experiment on NCI-H23 lung was greater than 100 µM throughout. Moreover, the TGI with NCI-H522 lung, in the experiment with OVCAR-3 ovarian, in the experiment with SF-268 CNS, in the experiment on SF-295 CNS, in the experiment with SF-539 CNS and in the experiment on SK-MEL-2 melanoma was greater than 100 µM each time. This compound had a TGI in the experiment on SN12C renal greater than 100 µM.
Take `COc1nn(Cc2ccccn2)c2ccc([N+](=O)[O-])cc12`: the TGI in the experiment on CAKI-1 renal was greater than 100 µM; in the experiment with CCRF-CEM leukemia, greater than 100 µM; with HCT-116 colon, greater than 100 µM; with HL-60(TB) leukemia, 64.1 µM; in the experiment on HOP-62 NSCLC, greater than 100 µM; in the experiment on IGROV1 ovarian, greater than 100 µM. Further, the TGI in the experiment on KM12 colon, with LOX IMVI melanoma, in the experiment on MDA-MB-231 breast, in the experiment with MDA-MB-435, in the experiment with MOLT-4 leukemia and in the experiment on NCI-H23 lung was greater than 100 µM throughout. For the same compound, the TGI in the experiment with NCI-H522 lung, in the experiment with OVCAR-3 ovarian, in the experiment with SF-268 CNS, with SF-295 CNS, with SF-539 CNS and with SK-MEL-2 melanoma was greater than 100 µM in each case. The compound further showed a TGI in the experiment with SN12C renal greater than 100 µM.
`C=CC(C)(C)n1cc(C2=C3OC(=O)C(c4cn(C(C)(C)C=C)c5ccccc45)=C3OC2=O)c2ccccc21`: the TGI in the experiment with CAKI-1 renal, in the experiment on CCRF-CEM leukemia, in the experiment on HCT-116 colon, in the experiment with HL-60(TB) leukemia, in the experiment on HOP-62 NSCLC and in the experiment with IGROV1 ovarian was greater than 100 µM each time. Moreover, the TGI in the experiment with KM12 colon, in the experiment with LOX IMVI melanoma, in the experiment with MDA-MB-231 breast, in the experiment on MDA-MB-435, in the experiment on MOLT-4 leukemia and in the experiment with NCI-H23 lung was greater than 100 µM in each case. Besides, the TGI in the experiment with NCI-H522 lung, in the experiment on OVCAR-3 ovarian, in the experiment on SF-268 CNS, with SF-295 CNS, in the experiment on SF-539 CNS and in the experiment with SK-MEL-2 melanoma was greater than 100 µM each time. Moreover, the TGI in the experiment on SN12C renal was greater than 100 µM.
In the case of `COC(=O)C1C2OC(C)(C)OC2CN1S(=O)(=O)c1ccc(C)cc1` (configuration not stated), the TGI with CAKI-1 renal, with CCRF-CEM leukemia, in the experiment with HCT-116 colon, with HL-60(TB) leukemia, in the experiment on HOP-62 NSCLC and with IGROV1 ovarian was greater than 100 µM throughout. For the same compound, the TGI in the experiment with KM12 colon, in the experiment on LOX IMVI melanoma, with MDA-MB-231 breast, in the experiment with MDA-MB-435, with MOLT-4 leukemia and with NCI-H23 lung was greater than 100 µM throughout. Also, the TGI in the experiment on NCI-H522 lung, in the experiment with OVCAR-3 ovarian, in the experiment on SF-268 CNS, in the experiment on SF-295 CNS, with SF-539 CNS and with SK-MEL-2 melanoma was greater than 100 µM in each case. This compound had a TGI in the experiment on SN12C renal greater than 100 µM.
With `O=C1CSC(c2ccccc2)N1c1nc2cc3sc(N4C(=O)CSC4c4ccccc4)nc3cc2s1` (configuration not stated), the TGI with CAKI-1 renal was greater than 100 µM; in the experiment with CCRF-CEM leukemia, greater than 84.1 µM; in the experiment with HCT-116 colon, greater than 100 µM; in the experiment with HL-60(TB) leukemia, greater than 100 µM; in the experiment with HOP-62 NSCLC, greater than 100 µM; with IGROV1 ovarian it was greater than 100 µM. In addition, the TGI with KM12 colon, in the experiment on LOX IMVI melanoma, with MDA-MB-231 breast, in the experiment with MDA-MB-435, with MOLT-4 leukemia and in the experiment on NCI-H23 lung was greater than 100 µM in each case. In addition, the TGI in the experiment on NCI-H522 lung is greater than 100 µM; with OVCAR-3 ovarian it was greater than 100 µM; in the experiment with SF-268 CNS, greater than 100 µM; in the experiment on SF-295 CNS, greater than 100 µM; in the experiment on SF-539 CNS it was 15.6 µM; in the experiment on SK-MEL-2 melanoma it was greater than 100 µM. Further, the TGI in the experiment on SN12C renal is greater than 100 µM.
